Assay results published in article PMC6095626, “Screening of the Pathogen Box for inhibitors with dual efficacy against Giardia lamblia and Cryptosporidium parvum” (PLoS Neglected Tropical Diseases, 2018).
Where two headings read alike, the source gives them in different places.

Legend:
[1] = tested on: G. lamblia trophozoites (luciferase expressing, WBC6); experiment: microbe, parasite or virus in culture; assay type: cell-based, Giardia lamblia; details: for EC50: read-out: G. lamblia EC50; for Giardia (16 uM) Mean % inhibition: initial Pathogen Box screen, single concentration 16 µM, inhibition compared to DMSO wells
In short: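 Incubation ran 24 h at 37 °C under anaerobic conditions, with compound added in equal volume to trophozoites (WBC6, luciferase-expressing, 250,000 cells/mL). Bioluminescence was the read-out, cross-checked by MOXI Z counts on a duplicate plate; metronidazole served as control (1:2 dilutions from 40 μM).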

[2] = tested on: C. parvum (UGA1 Nluc expressing strain in HCT-8 cells); experiment: microbe, parasite or virus in culture; assay type: cell-based, Cryptosporidium parvum; details: for Crypto (10 uM) Mean % inhibition: initial Pathogen Box screen, single concentration 10 µM, inhibition compared to DMSO wells
In short: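 Parasite growth quantified by NanoLuc luminescence from lysed infected HCT-8 cells, with EC50 fitted from dose curves. Compounds, single-dose 10 μM or serially diluted, were added to confluent 48 h monolayers before infection with bleached UGA1 Nluc oocysts.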

[3] = Cytotoxicity against HepG2 cells, AlamarBlue viability assay, 48 hours; assay type: cell-based, human; details: human, HepG2 cells, read-out: HepG2 CC50 (this study)
Source text: (§1) Mammalian cell cytotoxicity assay data performed on HepG2 (human hepatocellular carcinoma) cells and described as CC20 or CC50 values are provided in supporting documentation that accompanied the Pathogen Box for approximately three quarters of the 400 compounds. However, no details of the assay conditions or parameters were provided. In this study, selected compounds were further tested for cytotoxicity against HepG2 cells as previously described. Briefly, cells were exposed to two-fold serial dilutions of compounds for 48 hours and cytotoxicity was assessed using the AlamarBlue® viability assay (Thermo Fisher Scientific, Waltham, MA). Each dilution was assayed in quadruplicate and concentrations causing 50% growth inhibition (CC50) were calculated by non-linear regression using GraphPad Prism 7 software (GraphPad Software, San Diego, CA).

HepG2 cells [4] = details: read-out: HepG2 CC50 (literature values), cited from earlier work
C. parvum = details: IOWA strain (48h); read-out: C. parvum EC50 (literature); cited from earlier work
HepG2 cells [5] = experiment: Cytotoxicity against HepG2 cells, AlamarBlue viability assay, 48 hours; assay type: cell-based, human; details: read-out: HepG2 CC50 (this study)
Source text: as §1

HCT-8 host cells = experiment: Toxicity to HCT-8 host cells seen in the C. parvum assay; assay type: cell-based; details: no reliable C. parvum EC50 could be determined
Protocol: Growth inhibition and EC50 determination assays were performed using UGA1 Nluc expressing C. parvum strain in HCT-8 cells (ATCC^©, Manassas, VA) as previously described. HCT-8 cells were inoculated onto 96-well plates and allowed to grow for 48 hours to 90–100% confluence and then treated with single concentration (10 μM) or serially diluted compounds prior to oocyst infection. C. parvum oocysts were incubated for 10 minutes in 10% bleach at room temperature and then washed with DPBS. One thousand oocysts per well were applied to the 96 well plates with RPMI-1640 medium supplemented with 10% horse serum and 1% penicillin/streptomycin at the same time as compound addition and incubated for 48 hours. The cell monolayers were lysed for 1 hour before adding Nano-Glo® luciferase reagent (Promega, Madison, WI), and measuring relative luminescence units (RLU) in an EnVision Plate Reader (Perkin Elmer, Waltham, MA). Several parameters, including reproducibility and reliability, were previously evaluated to optimize this assay for low and high-throughput (HTP) screening of small molecule compounds against C. parvum. EC50 values were calculated using Prism 7 software (GraphPad Software, San Diego, CA).

G. lamblia = details: read-out: G. lamblia EC50 (literature), cited from earlier work
G. lamblia trophozoites = experiment: G. lamblia growth inhibition counted with MOXI Z Mini Automated Cell Counter; assay type: cell-based; details: Giardia duodenalis, 24 h, read-out: G. lamblia EC50 by MOXI coulter counter
Protocol: Preliminary effective concentration that causes 50% growth inhibition (EC50) assays were performed on the luciferase expressing and wild-type (control) G. lamblia cells to establish a correlation between manually counted cells and the bioluminescent signal read out. Trophozoites were harvested by chilling cultures on ice for 30 minutes and plated by adding 150 μL per well at a concentration of 250,000 cells/mL. Metronidazole (Sigma, St. Louis, MO) was used as a control and was serially diluted 1:2 from 40 μM to 0.04 μM and 150 μL was added to the 150 μL of the G. lamblia trophozoites. Plates were covered in plastic low-evaporation lids, sealed in individual anaerobic BD GasPak Bio-Bags (Becton Dickinson, San Jose, CA) and incubated at 37 °C for 24 hours. Plates were then iced for 30 minutes and 250 μL of resuspended cells were transferred to a solid white 96-well plate and 50 μL of 10 mg/mL D-luciferin was added to a final reaction concentration of 1.67 mg/mL. Plates were incubated on a plate shaker at 37 °C for 30 minutes and read on an EnVision Plate Reader. A duplicate plate was concurrently set up and assayed using a MOXI Z Mini Automated Cell Counter Kit (Orflo, Ketchum, ID). Results obtained from the bioluminescence assay and the MOXI counter data were compared to evaluate their correlation to each another. […]

[6] = luciferase expressing G. lamblia trophozoites, 24 hours, D-luciferin bioluminescence read-out

SMILES | EC50 ([1]; Giardia duodenalis, 24 h) [µM] | CC50 (HepG2 cells [4]) [µM] | EC50 (C. parvum) [µM] | Giardia (16 uM) Mean % inhibition [1] [%] | EC50 [1, 6] [µM] | Crypto (10 uM) Mean % inhibition [2] [%] | CC50 (HepG2 cells [5]) [µM] | also measured
CC(C)/N=c1\cc2n(-c3ccc(Cl)cc3)c3ccccc3nc-2cc1Nc1ccc(Cl)cc1 [MMV687800, Clofazimine, reference compound] | 1.79 ± 0.23 | > 20 | 0.015 | – | – | – | – | inhibition at 16 µM ([1]; Giardia duodenalis, read-out: Giardia (16 uM) Mean % inhibition): 98%; EC50 ([2]; Cryptosporidium parvum, HCT-8, 48 h, read-out: C. parvum EC50, Nluc C. parvum in HCT-8 cells, 48 hours): 3.3 µM; inhibition at 10 µM ([2]; Cryptosporidium parvum, HCT-8, read-out: Crypto (10 uM) Mean % inhibition): 82%; EC50 ([2]; read-out: C. parvum EC50, Nluc C. parvum in HCT-8 cells, 48 hours): 3.33 ± 1.2 µM; CC50 at 48 h [3]: 26.4 µM
O=C(Nc1ccc(C(F)(F)F)c(C(F)(F)F)c1)c1cc(Cl)ccc1O [MMV687807] | – | – | – | 97 | 0.51 ± 0.06 | 90 | < 5 | Toxicity to HCT-8 host cells in the C. parvum assay (HCT-8 host cells): too toxic to the HCT-8 host cells; CC50 (HepG2 cells [4]; ref Pathogen_Box_Activity_Biological_Data_ Structure & Smiles (https://www.pathogenbox.org/about-pathogen-box/composition)): 0.7 µM
CC(=O)OCC1OC([S-])C(OC(C)=O)C(OC(C)=O)C1OC(C)=O.CCP(CC)CC.[Au+] (centres unmarked) [MMV688978, Auranofin, reference compound] | – | 4.5 | 2 | 98 | 3.74 ± 0.46 | 93 | 0.5 | EC50 ([2]; Nluc C. parvum in HCT-8 cells, 48 hours, read-out: C. parvum EC50): 3.34 ± 2.7 µM; EC50 (G. lamblia; WB strain (48h)): 4 to 6 µM
Cc1ncc([N+](=O)[O-])n1CCO [metronidazole, Metronidazole] | 2.24 | – | – | – | – | – | – | EC50 (G. lamblia trophozoites): 1.06 µM; EC50 (G. lamblia): ~5 µM; EC50 (G. lamblia; reference strain WB (48h)): 8.65 µM
